Measurements reported in patent publication US6953809B2, “Monocyte chemoattractant protein-1 inhibitor compounds” (Zeneca Limited, priority 1997, dated 2005).
Read-outs that look alike come from different tables or passages of the source.

How the values were obtained:
MCP-1 receptor B (CCR2B) = target: T1, MCP-1 receptor B (CCR2B) (Homo sapiens, UniProt P41597); experiment: hMCP-1 receptor-binding assay (125I-MCP-1 competition on CHO-CCR2B cell membranes)
T1 construct: expressed in transfected cells; membrane fragments
T1 sequence (P41597 1-360 isoform P41597-2): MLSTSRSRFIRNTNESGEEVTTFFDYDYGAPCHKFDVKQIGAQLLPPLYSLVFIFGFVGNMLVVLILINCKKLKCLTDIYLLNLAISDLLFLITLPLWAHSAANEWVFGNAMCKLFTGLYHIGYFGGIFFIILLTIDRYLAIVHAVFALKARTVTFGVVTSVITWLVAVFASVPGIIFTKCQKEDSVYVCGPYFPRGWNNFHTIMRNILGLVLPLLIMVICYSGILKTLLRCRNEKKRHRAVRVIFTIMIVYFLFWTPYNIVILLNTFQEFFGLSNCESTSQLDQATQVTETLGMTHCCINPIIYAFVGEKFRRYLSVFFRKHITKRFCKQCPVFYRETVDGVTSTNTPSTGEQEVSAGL
Source text: a) hMCP-1 Receptor-Binding Assay i) Cloning and Expression of hMCP-1 Receptor
The MCP-1 receptor B (CCR2B) cDNA was cloned by PCR from THP-1 cell RNA using suitable oligonucleotide primers based on the published MCP-1 receptor sequences (Charo et al., 1994, Proc. Natl. Acad. Sci. USA, 91, 2752). The resulting PCR products were cloned into vector PCR-II™ (InVitrogen, San Diego, Calif.). Error free CCR2B cDNA was subcloned as a Hind III-Not I fragment into the eukaryotic expression vector pcDNA3 (InVitrogen) to generate pcDNA3/CC-CKR2A and pcDNA3/CCR2B respectively.
Linearised pcDNA3/CCR2B DNA was transfected into CHO-K1 cells by calcium phosphate precipitation (Wigler et al., 1979, Cell, 16, 777). Transfected cells were selected by the addition of Geneticin Sulphate (G418, Gibco BRL) at 1 mg/ml, 24 hours after the cells had been transfected. Preparation of RNA and Northern blotting were carried out as described previously (Needham et al., 1995, Prot. Express. Purific., 6, 134). CHO-K1 clone 7 (CHO-CCR2B) was identified as the highest MCP-1 receptor B expressor. […]
ii) Preparation of Membrane Fragments […]
^125I MCP-1 was prepared using Bolton and Hunter conjugation (Bolton et al., 1973, Biochem. J., 133, 529; Amersham International plc]. Equilibrium binding assays were carried out using the method of Ernst et al., 1994, J. Immunol., 152, 3541. Briefly, varying amounts of ^125I-labeled MCP-1 were added to […] of purified CHO-CCR2B cell membranes in […] of Binding Buffer. After 1 hour incubation at room temperature the binding reaction mixtures were filtered and washed 5 times through a plate washer (Packard Harvester Filtermate™ 196). Scintillation fluid (25 μl, Microscint™-20, a high efficiency liquid scintillation counting cocktail for aqueous samples) was added to each well and the plate was covered with plate sealer and counted (Packard Top Count™). […] Non-specific binding was determined by the inclusion of a 200-fold molar excess of unlabelled MCP-1 in the reaction. […]

THP-1 cells [1] = experiment: hMCP-1 mediated chemotaxis assay; type: cell-based, human; conditions: hMCP-1 induced concentration dependent cell migration
Description: c) hMCP-1 Mediated Chemotaxis Assay.
In vitro chemotaxis assays were performed using either the human monocytic cell line THP-1 or peripheral blood mixed monocytes obtained from fresh human blood purified by erythrocyte sedimentation followed by density gradient centrifugation over 9.6%(w/v) sodium metrizoate and 5.6%(w/v) polysaccharide, density 1.077 g/ml (Lymphoprep™ Nycomed). Cell migration through polycarbonate membranes was measured by enumerating those passing through either directly by Coulter counting or indirectly by use of a colourimetric viability assay measuring the cleavage of a tetrazolium salt by the mitochondrial respiratory chain (Scudiero D. A. et al. 1988, Cancer Res., 48, 48274833).
Chemoattractants were introduced into a 96-well microtiter plate which forms the lower well of a chemotaxis chamber fitted with a PVP-free 5 μm poresize polycarbonate adhesive framed filter membrane (NeuroProbe MB series, Cabin John, Md. 20818, USA) according to the manufacturer's instructions. The chemoattractant was diluted as appropriate in synthetic cell culture medium, RPMI 1640 (Gibco) supplemented with 2 mM glutamine and 0.5% BSA. […] The plate was incubated at 37° C. for 3 h and the absorbance of the soluble formazan product was read on a microtitre plate reader at 450 nm. […]

THP-1 cells [2] = experiment: MCP-1 mediated calcium flux in THP-1 cells; type: cell-based, human; conditions: stimulation of THP-1 cells with hMCP-1; dose response curves; read-out: approximate EC50 for rise in [Ca2+]i
Description: b) MCP-1 Mediated Calcium Flux in THP-1 Cells
The human monocytic cell line THP-1 was grown in a synthetic cell culture medium RPMI 1640 supplemented with 10% foetal calf serum, 2 mM glutamine and Penicillin-Streptomycin (at 50 μg streptomycin/mil, Gibco BRL). THP-1 cells were washed in HBSS (lacking Ca^2+ and Mg^2+)+1 mg/ml BSA and resuspended in the same buffer at a density of 3×10^6 cells/ml. The cells were then loaded with […] FURA-2/AM for 30 min at 37° C., washed twice in HBSS, and resuspended at 1×10^6 cells/ml. […] The cuvette was placed in a fluorescence spectrophotometer (Perkin Elmer, Norwalk, Conn.) and preincubated for 4 min at 37° C. with stirring. Fluorescence was recorded over 70 sec and cells were stimulated by addition of hMCP-1 to the cuvette after 10 sec. [Ca^2+]i was measured by excitation at 340 nm and 380 nm alternately and subsequent measurement of the intensity of the fluorescence emission at 510 nm. […] Rmax is the maximal fluorescence ratio determined after addition of […] Ionomycin, Rmin is the minimal ratio determined by the subsequent addition of a Ca^2+ free solution containing 5 mM EGTA, and Sf2/Sb2 is the ratio of fluorescence values at 380 nm excitation determined at Rmin and Rmax, respectively. […]

Compound | melting point | also measured
O=C(O)c1cc2ccccc2n1Cc1ccc(Cl)c(Cl)c1 | 198 °C | 
O=C(O)c1cc2cc(Br)ccc2n1Cc1ccc(Cl)c(Cl)c1 | 232 to 233 °C | 
O=C(O)c1cc2ccc(Cl)cc2n1Cc1ccc(Cl)c(Cl)c1 | 219 to 220 °C | 
COc1cccc2c1cc(C(=O)O)n2Cc1ccc(Cl)c(Cl)c1 | 220 to 221 °C | 
O=C(O)c1cc2ccc(C(F)(F)F)cc2n1Cc1ccc(Cl)c(Cl)c1 | 238 to 239 °C | 
COc1ccc2cc(C(=O)O)n(Cc3ccc(Cl)c(Cl)c3)c2c1 | 165 to 166 °C | 
CC(=O)c1c(C(=O)O)n(Cc2ccc(Cl)c(Cl)c2)c2ccccc12 | 163 to 164 °C | 
O=C(O)c1c([C@@H]2C[C@H]2C(=O)O)c2ccccc2n1Cc1ccc(Cl)c(Cl)c1 (relative stereo) [Example 3.58, N-(3,4-Dichlorobenzyl)-3-(trans-2-carboxy-cyclopropyl)indole-2-carboxylic acid] | 184 to 185 °C | 
CCOC(=O)c1cc2cc([N+](=O)[O-])ccc2n1Cc1ccc(Cl)c(Cl)c1 [Example 1.03, Ethyl N-(3,4-dichlorobenzyl)-5-nitroindole-2-carboxylate] | 133 to 140 °C | 
CCOC(=O)c1cc2cc(Br)ccc2n1Cc1ccc(Cl)c(Cl)c1 [Example 1.04, Ethyl 5-bromo-N-(3,4-dichlorobenzyl)indole-2-carboxylate] | 95 to 96 °C | 
COc1ccc(Cn2c(C(=O)O)cc3cc(F)ccc32)cc1 [Example 3.23, 5-Fluoro-N-(4-methoxybenzyl)indole-2-carboxylic acid] |  | IC50 (MCP-1 receptor B (CCR2B); competition with 100 pM labelled MCP-1, CHO-CCR2B cell membranes, read-out: IC50 in the hMCP-1 receptor binding assay): 7380 nM
O=C(O)c1cc2ccc([N+](=O)[O-])cc2n1Cc1ccc(Cl)c(Cl)c1 [Example 3.64, N-(3,4-Dichlorobenzyl)-6-nitroindole-2-carboxylic acid] | 256 to 257 °C | 
O=C(O)c1cc2c([N+](=O)[O-])cccc2n1Cc1ccc(Cl)c(Cl)c1 [Example 3.65, N-(3,4-Dichlorobenzyl)-4-nitroindole-2-carboxylic acid] | 296 to 297 °C | 
CC(=O)c1ccc2c(c1)cc(C(=O)O)n2Cc1ccc(Cl)c(Cl)c1 [Example 3.85, 5-Acetyl-N-(3,4-Dichlorobenzyl)indole-2-carboxylic acid] | 261 to 262 °C | 
CC(=O)Nc1ccc2c(c1)cc(C(=O)O)n2Cc1ccc(Cl)c(Cl)c1 [Example 4, N-(3,4-Dichlorobenzyl)-5-acetylaminoindole-2-carboxylic acid] | 245 to 246 °C | 
MCP-1: human Monocyte Chemoattractant Protein-1, a C—C chemokine; natural ligand used to validate the assays |  | IC50 (MCP-1 receptor B (CCR2B); membrane fragments from CHO-CCR2B cells, cold competition with 125I-labeled MCP-1, read-out: IC50 of MCP-1 binding to CCR2B): 0.11 nM; Kd (MCP-1 receptor B (CCR2B); membrane fragments from CHO-CCR2B cells, equilibrium binding): 0.12 nM; concentration of maximal cell migration (biphasic response) (THP-1 cells [1]): 0.5-1.0 nm; EC50 (THP-1 cells [2]): ~2 nM
